Reference: patent US20050255504A1, “Method of detecting an increased susceptibility to breast cancer” (priority 2004, published 2005)

Assays:
[1] = target: T1, COMT (Homo sapiens, UniProt P21964); experiment: Assay of COMT activity: methylation of catechol estrogens by purified recombinant His-COMT; assay type: biochemical; details: for formation as product of COMT methylation of 4-OHE2 / 4-OHE1: GC/MS detection of product; for pattern of the rates of methylation versus substrate concentration: substrate of COMT, FIG. 9
T1 construct: made in house; host or cells: Escherichia coli DH5alphaF'Iq
T1 sequence (P21964 1-221 isoform P21964-2): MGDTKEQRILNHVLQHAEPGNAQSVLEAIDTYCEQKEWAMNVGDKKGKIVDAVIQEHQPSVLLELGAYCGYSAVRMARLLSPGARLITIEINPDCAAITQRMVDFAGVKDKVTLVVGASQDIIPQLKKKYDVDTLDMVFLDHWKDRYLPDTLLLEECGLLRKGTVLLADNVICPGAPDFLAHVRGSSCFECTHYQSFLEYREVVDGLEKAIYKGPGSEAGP
Method: Assay of COMT Activity. Purified recombinant His-COMT (300 pmol) was reconstituted in 0.5 ml of 100 mM KPO4, pH 7.4, containing 5 mM MgCl2, 10 mM (β-mercaptoethanol, and 200 μM SAM. Reactions were initiated by adding varying concentrations of each individual catechol estrogen (2, 3, 6, 9, 12, 15, 20, 40, 60, 80, and 100 μM). Blanks contained all compounds except SAM. Reactions proceeded for 10 min at 37° C. with gentle shaking and then were terminated by addition of 2 ml CH2Cl2. To determine COMT activity in breast cancer cells, ZR-75 and MCF-7 cells were harvested at confluency and homogenized in 100 mM KP04, pH 7.4, 5 mM MgCl2, 10 mM β-mercaptoethanol. Following ultracentrifugation of the cell homogenate (110,000 g, 30 min, 4° C.), the supernatant cytosol was divided into aliquots for ICELISA, protein determination (BCA assay; Pierce, Rockford, Ill.), and COMT assay. The latter was carried out in the presence of 200 μM SAM and 100 μM catechol estrogen for 20 min at 37° C. and then terminated by addition of CH2Cl2. The concentration of endogenous catechol and methoxy estrogens was below the limit of detection by gas chromatography/mass spectrometry.
Extraction and Gas Chromatography/Mass Spectrometry Analysis of Catechol Estrogens. A deuterated internal standard (100 μl of 8 mg/liter E2-d4 in methanol) was added and all estrogens extracted into the CH2Cl2 by vortex mixing for 30 s. 1.5 ml of the CH2Cl2 fraction was evaporated to dryness under air and volatile TMS derivatives prepared by heating the residue with 100 μl of 50% NO-bis(trimethylsilyl)trifluoroacetamide/1% trimethyl chlorosilane in acetonitrile at 56° C. for 30 min. The TMS derivatives of the estrogen metabolites were separated by gas chromatography (H—P 5890, Hewlett-Packard, Wilmington, Del.) on a 5% phenyl methyl silicone stationary phase fused silica capillary column (30 m×0.2 mm×0.5 μm film, HP5; Hewlett-Packard). Helium carrier gas was used at a flow of 1 ml/min. The injector was operated at 250° C., with 2 μl injected in the splitless mode, with a purge (60 ml/min helium) time of 0.6 min. The oven temperature was held at 180° C. for 0.5 min, then raised at 6° C./min to 250° C. where it was held for 17 min, then raised to 300° C. at 8° C./min to give a total run time of 35.42 min. This program permitted adequate separation of a wide range of estrogen metabolites. Retention times (in min) for the TMS derivatives were E1 20.13, E2 and E2-d4 21.89, 4-MeOE1 23.52, 2-MeO-3-MeOE1 (underivatized) 23.75, 2-OH-3-MeOE1 24.87, 2-MeOE1 25.2, 4-MeOE2 25.78, 2-OHE1 and 2-MeO-3-MeOE2 26.19, 2-OH-3-MeOE2 26.9, 2-MeOE2 27.18, 4-OHE1 27.27, 6a-OHE2 27.29, 2-OHE2 27.44, 4-OHE2 28.06, E3 28.38. The E1 mass spectrometer (H—P 5970) was operated in the selected ion monitoring mode from 18 to 30 min. Ions monitored were TMS-E1 342, 257, 343; TMS2-E2-d4 420, 421, 287; TMS2-E2 416, 417, 285; TMS-4-MeOE1, TMS-2-OH-3-MeOE1, TMS-2-MeOE1 and TMS-3-MeO-4-OHE1 372, 373, 342; 2-MeO-3-MeOE1 314, 315, 229; TMS2-4-MeOE2, TMS2-2-OH-3-MeOE2, TMS2-2-MeOE2 and TMS2-3-MeO-4-OHE2 446, 447, 315; TMS2-2-OHE1 430, 431, 432; TMS-2-MeO-3-MeOE2 388, 389, 257; TMS2-4-OHE1 430, 431, 345; TMS2-6α-OHE2 414, 283, 309; TMS3-2-OHE2 and TMS3-4-OHE2 504, 505, 373; TMS3-E3 504, 505, 311 (FIG. 7). The instrument was calibrated by simultaneous preparation of an 11-point calibration over the range 0-22 nmol/tube of each compound. Sensitivity was determined to be between 0.02 and 0.04 nmol/tube (400-800 finol on column) for the various compounds. […] Absolute extraction efficiency for E2,2-OH-E2 and 4-OH-E2 at 3.5 nmol/tube was 119, 96, and 107% assessed by comparison to injections of spiked solvent samples onto the gas chromatograph. Internal standard added prior to extraction compensated for deviation from 100% recovery for all investigated compounds.
Statistical Analysis. […]

[2] = system: renal DNA; details: hamster, in vivo; cited from earlier work
[3] = system: CYP1B1; experiment: Assay of CYP1B1 E2 hydroxylation activity (purified recombinant enzyme, GC/MS of products); assay type: biochemical, human; details: E2 16a-hydroxylation
Method: Assay of CYP1B1 E2 Hydroxylation Activity. […] An NADPH-generating system consisting of 5 mM glucose 6-phosphate and 0.5 U of glucose-6-phosphate dehydrogenase/ml was added and reactions initiated by adding NADP+ to a final concentration of 0.5 mM. Reactions proceeded for 10 min at 37° C. with gentle shaking and then were terminated by addition of 2 ml CH2Cl2. Extraction and Gas Chromatography/Mass Spectrometry Analysis of E2 and Metabolites. […] Hewlett-Packard). Helium carrier gas was used at a flow of 1 ml/min. The injector was operated at 250° C., with […] injected in the splitless mode, with a purge (60 ml/min helium) time of 0.6 min. The oven temperature was held at 180° C. for 0.5 min, then raised at 6° C./min to 250° C. where it was held for 17 min, then raised to 300° C. at 8° C./min to give a total run time of 35.42 min. […] The E1 mass spectrometer (H-P 5970) was operated in the selected ion monitoring mode from 18 to 34 min. […] TMS2-E2 416, 285, 326; […]2 504, 373, 325; TMS3-16_-OH-E2 345, 311, 504. […] Internal standard added prior to extraction compensated for deviation from 100% recovery. Statistical Analysis. Kinetic parameters (Km and kcat) were determined by nonlinear regression analysis using the computer program GraphPad PRISM (San Diego, Calif.).

Molecule | pattern of the rates of methylation versus substrate concentration [1] | 16a-OH-Estradiol kcat [3] | further results
COc1ccc2c(c1O)CC[C@@H]1[C@@H]2CC[C@]2(C)[C@@H](O)CC[C@@H]12 [Variant 3-MeO-4-OHE2] |  |  | formation as product of COMT methylation of 4-OHE2 / 4-OHE1 [1]: not observed
C[C@]12CC[C@@H]3c4ccc(O)c(O)c4CC[C@H]3[C@@H]1CCC2=O [Variant 4-OHE1] | sigmoid curve pattern |  | levels of the oxidized base 8-hydroxy-deoxyguanosine in renal DNA [2]: significantly increased
C[C@]12CC[C@@H]3c4cc(O)c(O)cc4CC[C@H]3[C@@H]1CC[C@@H]2O [Variant 2-OHE2] | typical hyperbolic patterns |  | levels of the oxidized base 8-hydroxy-deoxyguanosine in renal DNA [2]: did not cause oxidative DNA damage
C[C@]12CC[C@@H]3c4cc(O)c(O)cc4CC[C@H]3[C@@H]1CCC2=O [Variant 2-OHE1] | typical hyperbolic patterns |  | 
COc1ccc2c(c1O)CC[C@@H]1[C@@H]2CC[C@]2(C)C(=O)CC[C@@H]12 [Variant 3-MeO-4-OHE1] |  |  | formation as product of COMT methylation of 4-OHE2 / 4-OHE1 [1]: not observed
Wild type: purified recombinant His-tagged wild type CYP1B1: 48Arg, 119Ala, 432Val, 453Asn (protein) HHHHHHLLSVLATVHVGQRLLRQRRRQLRSAPPGPFAWPLIGNAAAVGQAAHLSFARLARRYGDVFQIRLGSCPIVVLNGERAIHQALVQQGSAFADRPAFASFRVVSGGRSMAFGHYSEHWKVQRRAAHSMMRNFFTRQPRSRQVLEGHVLSEARELVALLVRGSADGAFLDPRPLTVVAVANVMSAVCFGCRYSHDDPEFRELLSHNEEFGRTVGAGSLVDVMPWLQYFPNPVRTVFREFEQLNRNFSNFILDKFLRHCESLRPGAAPRDMMDAFILSAEKKAAGDSHGGGARLDLENVPATITDIFGASQDTLSTALQWLLLLFTRYPDVQTRVQAELDQVVGRDRLPCMGDQPNLPYVLAFLYEAMRFSSFVPVTIPHATTANTSVLGYHIPKDTVVFVNQWSVNHDPLKWPNPENFDPARFLDKDGLINKDLTSRVMIFSVGKRRCIGEELSKMQLFLFISILAHQCDFRANPNEPAKMNFSYGLTIKPKSFKVNVTLRESMELLDSAVQNLQAKETCQ |  | 0.005 ± 0.00033 s⁻¹ | 16a-OH-Estradiol kcat ([3]; listed as Wild type CYP1B1): 0.005 ± 0.00033 s⁻¹; 16a-OH-Estradiol kcat ([3]; listed as wild type CYP1B1): 0.005 ± 0.00033 s⁻¹
Variant 4: recombinant CYP1B1 variant: 48Arg, 119Ala, 432Val, 453Ser (protein, UniProt Q16678 1-543, looked up, variant N453S) Cytochrome P450 1B1: MGTSLSPNDPWPLNPLSIQQTTLLLLLSVLATVHVGQRLLRQRRRQLRSAPPGPFAWPLIGNAAAVGQAAHLSFARLARRYGDVFQIRLGSCPIVVLNGERAIHQALVQQGSAFADRPAFASFRVVSGGRSMAFGHYSEHWKVQRRAAHSMMRNFFTRQPRSRQVLEGHVLSEARELVALLVRGSADGAFLDPRPLTVVAVANVMSAVCFGCRYSHDDPEFRELLSHNEEFGRTVGAGSLVDVMPWLQYFPNPVRTVFREFEQLNRNFSNFILDKFLRHCESLRPGAAPRDMMDAFILSAEKKAAGDSHGGGARLDLENVPATITDIFGASQDTLSTALQWLLLLFTRYPDVQTRVQAELDQVVGRDRLPCMGDQPNLPYVLAFLYEAMRFSSFVPVTIPHATTANTSVLGYHIPKDTVVFVNQWSVNHDPLKWPNPENFDPARFLDKDGLISKDLTSRVMIFSVGKRRCIGEELSKMQLFLFISILAHQCDFRANPNEPAKMNFSYGLTIKPKSFKVNVTLRESMELLDSAVQNLQAKETCQ |  | 0.0065 ± 0.00033 s⁻¹ | 
Variant 2: recombinant CYP1B1 variant: 48Arg, 119Ser, 432Val, 453Asn (protein, UniProt Q16678 1-543, looked up, variant A119S) Cytochrome P450 1B1: MGTSLSPNDPWPLNPLSIQQTTLLLLLSVLATVHVGQRLLRQRRRQLRSAPPGPFAWPLIGNAAAVGQAAHLSFARLARRYGDVFQIRLGSCPIVVLNGERAIHQALVQQGSAFADRPSFASFRVVSGGRSMAFGHYSEHWKVQRRAAHSMMRNFFTRQPRSRQVLEGHVLSEARELVALLVRGSADGAFLDPRPLTVVAVANVMSAVCFGCRYSHDDPEFRELLSHNEEFGRTVGAGSLVDVMPWLQYFPNPVRTVFREFEQLNRNFSNFILDKFLRHCESLRPGAAPRDMMDAFILSAEKKAAGDSHGGGARLDLENVPATITDIFGASQDTLSTALQWLLLLFTRYPDVQTRVQAELDQVVGRDRLPCMGDQPNLPYVLAFLYEAMRFSSFVPVTIPHATTANTSVLGYHIPKDTVVFVNQWSVNHDPLKWPNPENFDPARFLDKDGLINKDLTSRVMIFSVGKRRCIGEELSKMQLFLFISILAHQCDFRANPNEPAKMNFSYGLTIKPKSFKVNVTLRESMELLDSAVQNLQAKETCQ |  | 0.00567 ± 0.00033 s⁻¹ | 
Variant 1: recombinant CYP1B1 variant: 48Gly, 119Ala, 432Val, 453Asn (protein, UniProt Q16678 1-543, looked up, variant R48G) Cytochrome P450 1B1: MGTSLSPNDPWPLNPLSIQQTTLLLLLSVLATVHVGQRLLRQRRRQLGSAPPGPFAWPLIGNAAAVGQAAHLSFARLARRYGDVFQIRLGSCPIVVLNGERAIHQALVQQGSAFADRPAFASFRVVSGGRSMAFGHYSEHWKVQRRAAHSMMRNFFTRQPRSRQVLEGHVLSEARELVALLVRGSADGAFLDPRPLTVVAVANVMSAVCFGCRYSHDDPEFRELLSHNEEFGRTVGAGSLVDVMPWLQYFPNPVRTVFREFEQLNRNFSNFILDKFLRHCESLRPGAAPRDMMDAFILSAEKKAAGDSHGGGARLDLENVPATITDIFGASQDTLSTALQWLLLLFTRYPDVQTRVQAELDQVVGRDRLPCMGDQPNLPYVLAFLYEAMRFSSFVPVTIPHATTANTSVLGYHIPKDTVVFVNQWSVNHDPLKWPNPENFDPARFLDKDGLINKDLTSRVMIFSVGKRRCIGEELSKMQLFLFISILAHQCDFRANPNEPAKMNFSYGLTIKPKSFKVNVTLRESMELLDSAVQNLQAKETCQ |  | 0.00933 ± 0.00067 s⁻¹ | 
